Assays:
[1] = Binding affinity to ergosterol-containing palmitoyloleoylphosphatidylcholine membrane at 0.84 uM by UV spectra analysis; format: physicochemical
[2] = Ratio of amphotericin B EC50 to compound EC50 for human erythrocytes; format: ADME, cell-based, Erythrocyte; details: read-out: Ratio EC50
Aspergillus niger = assay: Antifungal activity against Aspergillus niger assessed as minimum compound concentration per disc required for inhibition zone formation after 50 hrs by disc diffusion assay; format: functional
[3] = Hemolytic activity against human erythrocytes after 18 hrs by spectrophotometry; format: ADME, cell-based; details: Erythrocyte
[4] = Binding affinity to ergosterol-containing palmitoyloleoylphosphatidylcholine membrane at 1.67 uM by UV spectra analysis; format: physicochemical
[5] = Binding affinity to ergosterol-containing palmitoyloleoylphosphatidylcholine membrane by UV spectra analysis; format: physicochemical

SMILES	Activity (Aspergillus niger) [µg]	EC50 [3] [µM]	other results
COC(=O)[C@H]1[C@@H]2C[C@@H](O[C@@H]3O[C@H](C)[C@@H](O)[C@H](NCCCNC(=O)CNC(=O)[C@H]4[C@@H]5C[C@@H](O[C@@H]6O[C@H](C)[C@@H](O)[C@H](N)[C@@H]6O)/C=C/C=C/C=C/C=C/C=C/C=C/C=C/[C@H](C)[C@@H](O)[C@@H](C)[C@H](C)OC(=O)C[C@H](O)C[C@H](O)CC[C@@H](O)[C@H](O)C[C@H](O)C[C@](O)(C[C@@H]4O)O5)[C@@H]3O)/C=C/C=C/C=C/C=C/C=C/C=C/C=C/[C@H](C)[C@@H](O)[C@@H](C)[C@H](C)OC(=O)C[C@H](O)C[C@H](O)CC[C@@H](O)[C@H](O)C[C@H](O)C[C@](O)(C[C@@H]1O)O2			Activity [1]: Active
C[C@@H]1[C@H](O)[C@@H](C)/C=C/C=C/C=C/C=C/C=C/C=C/C=C/[C@H](O[C@@H]2O[C@H](C)[C@@H](O)[C@H](NCCCNC(=O)CNC(=O)[C@@H]3[C@@H](O)[C@H](F)[C@@]4(O)C[C@@H](O)C[C@@H](O)[C@H](O)CC[C@@H](O)C[C@@H](O)CC(=O)O[C@@H](C)[C@H](C)[C@H](O)[C@@H](C)/C=C/C=C/C=C/C=C/C=C/C=C/C=C/[C@H](O[C@@H]5O[C@H](C)[C@@H](O)[C@H](N)[C@@H]5O)C[C@@H]3O4)[C@@H]2O)C[C@@H]2O[C@](O)(C[C@@H](O)C[C@@H](O)[C@H](O)CC[C@@H](O)C[C@@H](O)CC(=O)O[C@H]1C)C[C@H](O)[C@H]2C(=O)O[13CH3]	50	13	selectivity ratio [2]: 6
COC(=O)[C@H]1[C@@H]2C[C@@H](O[C@@H]3O[C@H](C)[C@@H](O)[C@H](N)[C@@H]3O)/C=C/C=C/C=C/C=C/C=C/C=C/C=C/[C@H](C)[C@@H](O)[C@@H](C)[C@H](C)OC(=O)C[C@H](O)C[C@H](O)CC[C@@H](O)[C@H](O)C[C@H](O)C[C@](O)(C[C@@H]1O)O2 [AMPHOTERICIN B ME ESTER]			Activity [4]: Active
C[C@@H]1[C@H](O)[C@@H](C)/C=C/C=C/C=C/C=C/C=C/C=C/C=C/[C@H](O[C@@H]2O[C@H](C)[C@@H](O)[C@H](N)[C@@H]2O)C[C@@H]2O[C@](O)(C[C@@H](O)C[C@@H](O)[C@H](O)CC[C@@H](O)C[C@@H](O)CC(=O)O[C@H]1C)C[C@H](O)[C@H]2C(=O)O [AMPHOTERICIN B]	10	2	Activity [5]: Active

From ChEMBL document CHEMBL2146389, “Possible conformation of amphotericin B dimer in membrane-bound assembly as deduced from solid-state NMR” (Bioorg Med Chem, 2012)
